# Experimental data: patent publication US20020045247A1, “METHODS FOR THE PREPARATION OF RETROVIRAL PARTICLES AND CELL LINES DEFICIENT IN THE ALPHA-GALACTOSYL EPITOPE” (priority 1997, published 2002)
# Tests used:
# [1] = tested on: complement-mediated inactivation of amphotropic retroviral particles in human serum; experiment: Retrovirus killing assay in human serum preincubated with soluble carbohydrates; type: cell-based; settings: for effect on complement-mediated retrovirus inactivation / retrovirus survival: 5 mg/ml carbohydrate preincubated with 40% human serum, titered on NIH/3T3 cells
# Procedure: (§1) RVVP samples were assayed for titer of infectious RVVPs on NIH/3T3 cells (ATCC designation CCL 163). 2.5×10^4 cells were plated per well in 6-well plates with 2 ml of DMEM containing 10% fetal bovine serum (D10). The medium in each well was replaced with 2 ml of D10 containing 8 μg/ml of polybrene and retroviral particles were added. Ten-fold dilutions were made from the original well and plates were incubated for 24 h at 37° C. Medium was removed and 2 ml of D10 containing 500 μg/ml of G418 (active weight) was added. The cells were maintained under selection for 7 days with 2 changes of medium during this period. Finally, medium was removed and colonies were stained with methylene blue saturated methanol for 15 min. followed by a brief rinse in water. Wells containing less than 100 colonies were counted to determine titers.
# Retroviral vector particles, including those from PA317 or PA317/H-transferase cells, (approximately 500 CFU) were incubated for 30 min. at 37° C. in 100 μl of 40% primate sera diluted in Hank's balanced salt solution (HBSS) and subsequently titered on NIH/3T3 cells to assess retrovirus survival as described above. The different primate sera included human (Diamedix, Cambridge, Mass.), chimpanzee (Southwest Foundation for Research, San Antonio, Tex.), baboon, squirrel monkey, owl monkey and tamarin (all from the New England Regional Primate Research Center, Southborough, Mass.). Data were calculated as percent retrovirus survival in the various sera relative to the number of input CFU (determined by incubation of virus in 40% heat inactivated human serum). […] In the anti-αgalactosyl antibody depletion experiments, retroviral particles were preincubated with either anti-αgalactosyl antibody (90 μg/ml) or buffer alone (PBS; BioWhittaker, Walkersville, Md.) for 30 min. at 37° C. before the addition of either 40% human serum, 40% human serum depleted of anti-αgalactosyl antibodies or 40% squirrel monkey serum for an additional 30 min. incubation. Retrovirus survival was then assessed as described above.
# [2] = tested on: inactivation of LXSN retroviral vector particles by human serum; experiment: Inactivation of LXSN retroviral vector particles in human serum in the presence of added sugars (Example 2); type: cell-based; settings: 0.3125, 0.625, 1.25, 2.5 and 5 mg/ml; 40% human serum; relative to samples without added sugars
# Procedure: as §1
# LXSN retroviral vector particles were prepared as described above. Aliquots of a 40% solution of human serum in HBSS were then incubated for 15 minutes at room temperature with added sugars. The sugars added were D-glucose (Mallinckrodt, Paris, Ky.) and galactose alpha-1,3 galactose (Dextra Laboratories, Reading, England), and were added at concentrations of 0.3125, 0.625, 1.25, 2.5, and 5 mg/ml. […] The results of these titrations were calculated as fold increase in retroviral vector particle survival relative to the control samples, and are set forth in FIG. 2.
# Golgi α-mannosidase I = settings: addition of inhibitor; cited from earlier work
# α-glucosidase I = target: T1, α-glucosidase I (Homo sapiens, UniProt Q13724); settings: addition of inhibitor; cited from earlier work
# T1 sequence (Q13724 1-837): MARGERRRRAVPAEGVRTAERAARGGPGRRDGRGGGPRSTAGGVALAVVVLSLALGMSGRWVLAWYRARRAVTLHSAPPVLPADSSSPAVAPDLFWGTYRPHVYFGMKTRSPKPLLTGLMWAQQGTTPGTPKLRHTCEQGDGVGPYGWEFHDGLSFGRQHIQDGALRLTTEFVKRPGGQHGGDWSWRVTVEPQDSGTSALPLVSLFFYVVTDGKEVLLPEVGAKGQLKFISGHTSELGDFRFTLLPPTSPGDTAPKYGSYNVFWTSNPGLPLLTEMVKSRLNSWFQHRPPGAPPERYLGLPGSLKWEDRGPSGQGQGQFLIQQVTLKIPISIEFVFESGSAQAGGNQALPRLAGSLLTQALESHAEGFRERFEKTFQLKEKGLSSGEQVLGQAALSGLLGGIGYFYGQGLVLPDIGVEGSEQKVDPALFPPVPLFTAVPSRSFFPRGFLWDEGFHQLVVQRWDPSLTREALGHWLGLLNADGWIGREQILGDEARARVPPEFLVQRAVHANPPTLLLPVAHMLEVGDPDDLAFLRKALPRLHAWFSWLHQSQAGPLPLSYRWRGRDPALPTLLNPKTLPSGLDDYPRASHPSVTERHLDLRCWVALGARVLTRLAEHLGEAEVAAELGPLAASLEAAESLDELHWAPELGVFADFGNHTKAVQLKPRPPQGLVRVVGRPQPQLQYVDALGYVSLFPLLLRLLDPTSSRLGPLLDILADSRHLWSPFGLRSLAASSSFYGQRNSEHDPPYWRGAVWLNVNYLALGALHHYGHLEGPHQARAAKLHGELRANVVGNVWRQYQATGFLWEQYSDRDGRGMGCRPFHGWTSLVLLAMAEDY
# Golgi α-mannosidase II = target: T2, Golgi α-mannosidase II (Homo sapiens, UniProt Q16706); settings: addition of inhibitor; cited from earlier work
# T2 sequence (Q16706 1-1144): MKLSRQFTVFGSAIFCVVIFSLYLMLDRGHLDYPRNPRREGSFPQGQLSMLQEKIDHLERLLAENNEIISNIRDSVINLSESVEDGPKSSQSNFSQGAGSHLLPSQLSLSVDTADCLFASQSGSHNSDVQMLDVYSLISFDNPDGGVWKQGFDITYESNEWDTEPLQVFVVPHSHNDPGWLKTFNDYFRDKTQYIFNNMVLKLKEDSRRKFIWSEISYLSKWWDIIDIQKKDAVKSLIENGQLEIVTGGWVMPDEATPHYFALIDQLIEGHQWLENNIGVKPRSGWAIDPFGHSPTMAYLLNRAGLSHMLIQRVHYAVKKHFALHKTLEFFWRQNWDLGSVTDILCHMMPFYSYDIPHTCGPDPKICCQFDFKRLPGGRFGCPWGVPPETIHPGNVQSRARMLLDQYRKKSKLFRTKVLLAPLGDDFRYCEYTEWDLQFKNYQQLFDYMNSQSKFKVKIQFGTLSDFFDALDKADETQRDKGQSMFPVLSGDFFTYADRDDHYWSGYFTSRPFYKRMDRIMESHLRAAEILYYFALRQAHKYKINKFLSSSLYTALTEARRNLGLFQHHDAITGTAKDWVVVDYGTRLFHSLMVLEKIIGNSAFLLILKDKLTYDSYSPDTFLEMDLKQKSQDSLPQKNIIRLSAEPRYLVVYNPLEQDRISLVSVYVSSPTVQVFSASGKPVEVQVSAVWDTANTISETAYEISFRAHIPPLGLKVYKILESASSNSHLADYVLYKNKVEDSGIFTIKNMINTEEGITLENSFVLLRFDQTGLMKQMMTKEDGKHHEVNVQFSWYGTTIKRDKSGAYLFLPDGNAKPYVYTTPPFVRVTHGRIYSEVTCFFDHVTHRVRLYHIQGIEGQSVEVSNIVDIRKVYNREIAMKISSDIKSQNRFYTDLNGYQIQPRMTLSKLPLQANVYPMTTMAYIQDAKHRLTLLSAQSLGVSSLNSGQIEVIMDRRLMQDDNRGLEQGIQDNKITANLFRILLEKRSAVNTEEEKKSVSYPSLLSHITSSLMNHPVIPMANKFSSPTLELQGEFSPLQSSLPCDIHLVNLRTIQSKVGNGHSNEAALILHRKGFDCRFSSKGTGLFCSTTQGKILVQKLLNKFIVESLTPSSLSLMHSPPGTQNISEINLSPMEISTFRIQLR
smiles,measurement,setting,value
C[C@@H]1O[C@@H](O)[C@@H](O)[C@H](O)[C@@H]1O [α-L(−) fucose],effect on complement-mediated retrovirus inactivation / retrovirus survival,[1],did not affect retrovirus survival
O=C[C@H](O)[C@@H](O)[C@H](O)[C@H](O)CO [D(+) glucose],effect on complement-mediated retrovirus inactivation / retrovirus survival,[1],did not affect retrovirus survival
same,reduction of inactivation of retroviral vector particles by human serum,[2],not
OC[C@H]1NC[C@@H](O)[C@@H](O)[C@@H]1O [1-deoxymannojirimycin],activity of Golgi α-mannosidase I,Golgi α-mannosidase I,greatly reduced
O=C[C@H](O)[C@@H](O)[C@@H](O)[C@H](O)CO [D(+) galactose],inhibition at 5000 µg/mL,"[1]; 5 mg/ml, 40% human serum",~25%
"OC[C@H]1O[C@H](O[C@H]2[C@@H](O)[C@@H](CO)OC(O)[C@@H]2O)[C@H](O)[C@@H](O)[C@H]1O (stereo partly drawn) [Galα1-3Gal, galactose α1-3 galactose]",effect on complement-mediated retrovirus inactivation / retrovirus survival,[1],completely blocked complement-mediated virolysis
same,"inhibition of retrovirus inactivation, dose dependence","[1]; various concentrations, 40% human serum",inhibited retrovirus inactivation in a dose-dependent manner
same,reduction of inactivation of retroviral vector particles by human serum,[2],substantially reduces the inactivation of the retroviral vector particles
CN1C[C@H](O)[C@@H](O)[C@H](O)[C@H]1CO [N-methyldeoxynojirimycin],activity of α-glucosidase I,α-glucosidase I,greatly reduced
O[C@H]1[C@H](O)[C@@H](O)CN2CC[C@H](O)[C@H]12 [castanospermine],activity of α-glucosidase I,α-glucosidase I,greatly reduced
OC[C@H]1O[C@@](CO)(O[C@H]2O[C@H](CO)[C@@H](O)[C@H](O)[C@H]2O)[C@@H](O)[C@@H]1O [sucrose],effect on complement-mediated retrovirus inactivation / retrovirus survival,[1],did not affect retrovirus survival
O[C@H]1[C@H]2[C@H](O)CCCN2C[C@H]1O [swainsonine],activity of Golgi α-mannosidase II,Golgi α-mannosidase II,greatly reduced
